According to patent publication US12077503B2, “Substituted cyclic amides and their use as herbicides” (FMC CORPORATION, priority 2015, dated 2024):

Legend:
Format in all cases: in vivo
[1] = test system: ryegrass, Italian (Italian ryegrass, Lolium multiflorum); assay: Test A preemergence; conditions: Lolium multiflorum, pre-emergence, 240 h, 0 to 100 scale where 0 is no effect and 100 is complete control, read-out: Ryegrass, Italian plant response rating; for pest or weed control at 31 g/ha: 31 g ai/ha, Preemergence; for pest or weed control at 125 g/ha: 125 g ai/ha, preemergence, visual injury rating, approximately 10 d
Procedure, shortened: (§1)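 Preemergence directed soil spray on seeded pots, or postemergence application to plants 2–10 cm, one- to two-leaf. Solvent mixture non-phytotoxic, with surfactant. Scored ~10 d later, visually, 0–100 vs untreated.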

[2] = test system: giant foxtail (Setaria faberii); assay: Test A preemergence; conditions: Setaria faberi, pre-emergence, 240 h, 0 to 100 scale where 0 is no effect and 100 is complete control, read-out: Foxtail, Giant plant response rating; for pest or weed control at 31 g/ha: 31 g ai/ha, Preemergence; for pest or weed control at 125 g/ha: 125 g ai/ha, preemergence, visual injury rating, approximately 10 d
Procedure, shortened: as §1

[3] = test system: pigweed (Amaranthus retroflexus); assay: Test A preemergence; conditions: Amaranthus retroflexus, pre-emergence, 240 h, 0 to 100 scale where 0 is no effect and 100 is complete control, read-out: Pigweed plant response rating; for pest or weed control at 31 g/ha: 31 g ai/ha, Preemergence; for pest or weed control at 125 g/ha: 125 g ai/ha, preemergence, visual injury rating, approximately 10 d
[4] = test system: barnyardgrass (Echinochloa crus-galli); assay: Test A preemergence; conditions: Echinochloa crus-galli, pre-emergence, 240 h, 0 to 100 scale where 0 is no effect and 100 is complete control, read-out: Barnyardgrass plant response rating; for pest or weed control at 31 g/ha: 31 g ai/ha, Preemergence; for pest or weed control at 125 g/ha: 125 g ai/ha, preemergence, visual injury rating, approximately 10 d
Procedure, shortened: as §1

Kochia (Kochia scoparia) [5] = assay: Test A preemergence; conditions: Bassia scoparia, pre-emergence, 240 h, 0 to 100 scale where 0 is no effect and 100 is complete control, read-out: Kochia plant response rating; for pest or weed control at 31 g/ha: 31 g ai/ha, Preemergence; for pest or weed control at 125 g/ha: 125 g ai/ha, preemergence, visual injury rating, approximately 10 d
Procedure, shortened: as §1

[6] = test system: ragweed (common ragweed, Ambrosia elatior); assay: Test A preemergence; conditions: Ambrosia artemisiifolia, pre-emergence, 240 h, 0 to 100 scale where 0 is no effect and 100 is complete control, read-out: Ragweed plant response rating; for pest or weed control at 31 g/ha: 31 g ai/ha, Preemergence; for pest or weed control at 125 g/ha: 125 g ai/ha, preemergence, visual injury rating, approximately 10 d
Procedure, shortened: as §1

[7] = test system: ryegrass, Italian (Italian ryegrass, Lolium multiflorum); assay: Test A postemergence; conditions: Lolium multiflorum, post-emergence, 240 h, read-out: Ryegrass, Italian plant response rating (0 to 100 scale); for pest or weed control at 125 g/ha: 125 g ai/ha, postemergence, visual injury vs untreated controls after approx. 10 d, 0 = no effect, 100 = complete control; for pest or weed control at 31 g/ha: Postemergence, 31 g ai/ha, 0 is no effect, 100 is complete control
Procedure, shortened: as §1

[8] = test system: wheat (Triticum aestivum); assay: Test A postemergence; conditions: Triticum aestivum, post-emergence, 240 h, read-out: Wheat plant response rating (0 to 100 scale); for plant injury at 125 g/ha: 125 g ai/ha, postemergence, visual injury vs untreated controls after approx. 10 d, 0 = no effect, 100 = complete control; for plant injury at 31 g/ha: Postemergence, 31 g ai/ha, 0 is no effect, 100 is complete control
Procedure, shortened: as §1

[9] = test system: Galium (catchweed bedstraw, Galium aparine); assay: Test A postemergence; conditions: Galium, post-emergence, 240 h, read-out: Galium plant response rating (0 to 100 scale); for pest or weed control at 125 g/ha: 125 g ai/ha, postemergence, visual injury vs untreated controls after approx. 10 d, 0 = no effect, 100 = complete control; for pest or weed control at 31 g/ha: Postemergence, 31 g ai/ha, 0 is no effect, 100 is complete control
Procedure, shortened: as §1

corn (Zea mays) = assay: Test A postemergence; conditions: Zea mays, post-emergence, 240 h, read-out: Corn plant response rating (0 to 100 scale); for plant injury at 125 g/ha: 125 g ai/ha, postemergence, visual injury vs untreated controls after approx. 10 d, 0 = no effect, 100 = complete control; for plant injury at 31 g/ha: Postemergence, 31 g ai/ha, 0 is no effect, 100 is complete control
Procedure, shortened: as §1

[10] = test system: giant foxtail (Setaria faberii); assay: Test A postemergence; conditions: Setaria faberi, post-emergence, 240 h, read-out: Foxtail, Giant plant response rating (0 to 100 scale); for pest or weed control at 125 g/ha: 125 g ai/ha, postemergence, visual injury vs untreated controls after approx. 10 d, 0 = no effect, 100 = complete control; for pest or weed control at 31 g/ha: Postemergence, 31 g ai/ha, 0 is no effect, 100 is complete control
Procedure, shortened: as §1

[11] = test system: pigweed (Amaranthus retroflexus); assay: Test A postemergence; conditions: Amaranthus retroflexus, post-emergence, 240 h, read-out: Pigweed plant response rating (0 to 100 scale); for pest or weed control at 125 g/ha: 125 g ai/ha, postemergence, visual injury vs untreated controls after approx. 10 d, 0 = no effect, 100 = complete control; for pest or weed control at 31 g/ha: Postemergence, 31 g ai/ha, 0 is no effect, 100 is complete control
Procedure, shortened: as §1

[12] = test system: barnyardgrass (Echinochloa crus-galli); assay: Test A postemergence; conditions: Echinochloa crus-galli, post-emergence, 240 h, read-out: Barnyardgrass plant response rating (0 to 100 scale); for pest or weed control at 125 g/ha: 125 g ai/ha, postemergence, visual injury vs untreated controls after approx. 10 d, 0 = no effect, 100 = complete control; for pest or weed control at 31 g/ha: Postemergence, 31 g ai/ha, 0 is no effect, 100 is complete control
Procedure, shortened: as §1

Kochia (Kochia scoparia) [13] = assay: Test A postemergence; conditions: Bassia scoparia, post-emergence, 240 h, read-out: Kochia plant response rating (0 to 100 scale); for pest or weed control at 125 g/ha: 125 g ai/ha, postemergence, visual injury vs untreated controls after approx. 10 d, 0 = no effect, 100 = complete control; for pest or weed control at 31 g/ha: Postemergence, 31 g ai/ha, 0 is no effect, 100 is complete control
Procedure, shortened: as §1

[14] = test system: ragweed (common ragweed, Ambrosia elatior); assay: Test A postemergence; conditions: Ambrosia artemisiifolia, post-emergence, 240 h, read-out: Ragweed plant response rating (0 to 100 scale); for pest or weed control at 125 g/ha: 125 g ai/ha, postemergence, visual injury vs untreated controls after approx. 10 d, 0 = no effect, 100 = complete control; for pest or weed control at 31 g/ha: Postemergence, 31 g ai/ha, 0 is no effect, 100 is complete control
Procedure, shortened: as §1

[15] = test system: blackgrass (Alopecurus myosuroides); assay: Test A postemergence; conditions: Alopecurus myosuroides, post-emergence, 240 h, read-out: Blackgrass plant response rating (0 to 100 scale); for pest or weed control at 125 g/ha: 125 g ai/ha, postemergence, visual injury vs untreated controls after approx. 10 d, 0 = no effect, 100 = complete control; for pest or weed control at 31 g/ha: Postemergence, 31 g ai/ha, 0 is no effect, 100 is complete control
Procedure, shortened: as §1

rice (Oryra sativa) = assay: Test B flooded paddy test; conditions: Oryza sativa, 250 g ai/ha, Flood; 0 to 100 scale where 0 is no effect and 100 is complete control; read-out: Rice plant response rating
Procedure, shortened: (§2)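 2-leaf plants; pots flooded 3 cm over soil; cpd added to paddy water; depth held; greenhouse 13–15 d; visual rating vs controls, 0 = no effect, 100 = complete control.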

[16] = test system: ducksalad (Heteranthera limosa); assay: Test B flooded paddy test; conditions: Heteranthera limosa, 250 g ai/ha, Flood; 0 to 100 scale where 0 is no effect and 100 is complete control; read-out: Ducksalad plant response rating
Procedure, shortened: as §2

[17] = test system: sedge, umbrella (small-flower umbrella sedge, Cyperus difformis); assay: Test B flooded paddy test; conditions: Cyperus difformis, 250 g ai/ha, Flood; 0 to 100 scale where 0 is no effect and 100 is complete control; read-out: Sedge, Umbrella plant response rating
Procedure, shortened: as §2

[18] = test system: barnyardgrass (Echinochloa crus-galli); assay: Test B flooded paddy test; conditions: Echinochloa crus-galli, 250 g ai/ha, Flood; 0 to 100 scale where 0 is no effect and 100 is complete control; read-out: Barnyardgrass plant response rating
Procedure, shortened: as §2

| Compound | pest or weed control at 31 g/ha [1] [%] | pest or weed control at 125 g/ha [1] [%] | pest or weed control at 31 g/ha [2] [%] | pest or weed control at 125 g/ha [2] [%] | pest or weed control at 31 g/ha [3] [%] | pest or weed control at 125 g/ha [3] [%] | pest or weed control at 31 g/ha [4] [%] | pest or weed control at 125 g/ha [4] [%] | pest or weed control at 31 g/ha (Kochia (Kochia scoparia) [5]) [%] | pest or weed control at 125 g/ha (Kochia (Kochia scoparia) [5]) [%] | pest or weed control at 31 g/ha [6] [%] | pest or weed control at 125 g/ha [6] [%] | pest or weed control at 125 g/ha [7] [%] | pest or weed control at 31 g/ha [7] [%] | plant injury at 125 g/ha [8] [%] | plant injury at 31 g/ha [8] [%] | pest or weed control at 125 g/ha [9] [%] | pest or weed control at 31 g/ha [9] [%] | plant injury at 125 g/ha (corn (Zea mays)) [%] | plant injury at 31 g/ha (corn (Zea mays)) [%] | also measured |
| --- | --- | --- | --- | --- | --- | --- | --- | --- | --- | --- | --- | --- | --- | --- | --- | --- | --- | --- | --- | --- | --- |
| Cc1ccc([C@H]2CN(C)C(=O)[C@@H]2C(=O)Nc2cccc(F)c2C#N)cc1 [Compound 1189] | 20 | 60 | 90 | 100 | 0 | 40 | 90 | 100 | 40 | 70 | 0 | 50 | 20 | 0 | 20 | 0 | 50 | 30 | 20 | 0 | pest or weed control at 125 g/ha [10]: 80%; pest or weed control at 31 g/ha [10]: 70%; pest or weed control at 125 g/ha [11]: 0%; pest or weed control at 31 g/ha [11]: 0%; pest or weed control at 125 g/ha [12]: 100%; pest or weed control at 31 g/ha [12]: 70%; pest or weed control at 125 g/ha (Kochia (Kochia scoparia) [13]): 20%; pest or weed control at 31 g/ha (Kochia (Kochia scoparia) [13]): 0%; pest or weed control at 125 g/ha [14]: 40%; pest or weed control at 31 g/ha [14]: 0%; pest or weed control at 125 g/ha [15]: 40%; pest or weed control at 31 g/ha [15]: 20%; pest or weed control at 250 g/ha (rice (Oryra sativa)): 15%; pest or weed control at 250 g/ha [16]: 100%; pest or weed control at 250 g/ha [17]: 0%; pest or weed control at 250 g/ha [18]: 75% |
| N#Cc1ccc([C@H]2CNC(=O)[C@@H]2C(=O)Nc2ccccc2F)cc1F [Compound 1191] | 0 | 0 | 0 | 0 | 0 | 0 | 0 | 0 | 0 | 0 | 0 | 0 | 0 | 0 | 0 | 0 | 0 | 0 | 0 | 0 | pest or weed control at 125 g/ha [10]: 0%; pest or weed control at 31 g/ha [10]: 0%; pest or weed control at 125 g/ha [11]: 0%; pest or weed control at 31 g/ha [11]: 0%; pest or weed control at 125 g/ha [12]: 0%; pest or weed control at 31 g/ha [12]: 0%; pest or weed control at 125 g/ha (Kochia (Kochia scoparia) [13]): 0%; pest or weed control at 31 g/ha (Kochia (Kochia scoparia) [13]): 0%; pest or weed control at 125 g/ha [14]: 0%; pest or weed control at 31 g/ha [14]: 0%; pest or weed control at 125 g/ha [15]: 0%; pest or weed control at 31 g/ha [15]: 0%; pest or weed control at 250 g/ha (rice (Oryra sativa)): 10%; pest or weed control at 250 g/ha [16]: 90%; pest or weed control at 250 g/ha [17]: 0%; pest or weed control at 250 g/ha [18]: 0% |
